Data published in publication PMC8496750, “Identification of the organic anion transporting polypeptides responsible for the hepatic uptake of the major metabolite of epyrifenacil, S‐3100‐CA, in mice” (Pharmacology Research & Perspectives, 2021).

Key:
rat Oatp1a1 = target: T1, rat Oatp1a1 (Rattus norvegicus, UniProt P46720); test: Uptake assay for radiolabeled substrates, rat Oatp1a1 expressing 293FT cells; type: in vitro ADME; settings: for Ratio of uptake amount relative to the uptake into mock cells: 10‐min incubation
T1 construct: expressed in transfected cells; host or cells: 293FT cells
T1 sequence (P46720 1-670): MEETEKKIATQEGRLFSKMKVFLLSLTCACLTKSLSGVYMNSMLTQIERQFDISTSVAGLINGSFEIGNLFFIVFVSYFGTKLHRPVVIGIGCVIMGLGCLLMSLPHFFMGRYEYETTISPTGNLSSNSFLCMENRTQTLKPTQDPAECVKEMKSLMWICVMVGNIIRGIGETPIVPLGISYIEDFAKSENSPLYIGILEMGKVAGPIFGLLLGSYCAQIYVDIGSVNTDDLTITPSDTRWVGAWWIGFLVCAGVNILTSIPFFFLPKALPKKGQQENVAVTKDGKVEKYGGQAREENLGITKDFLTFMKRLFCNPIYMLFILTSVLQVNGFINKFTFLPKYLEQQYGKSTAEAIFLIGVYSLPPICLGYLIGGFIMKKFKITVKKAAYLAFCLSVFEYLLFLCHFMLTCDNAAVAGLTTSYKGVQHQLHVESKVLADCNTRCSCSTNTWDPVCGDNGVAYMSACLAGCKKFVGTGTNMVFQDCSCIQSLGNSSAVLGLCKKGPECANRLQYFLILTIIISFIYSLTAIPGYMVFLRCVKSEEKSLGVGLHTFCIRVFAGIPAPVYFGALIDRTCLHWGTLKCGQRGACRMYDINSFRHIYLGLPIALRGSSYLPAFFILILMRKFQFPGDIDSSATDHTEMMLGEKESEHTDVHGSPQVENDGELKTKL
Method: (§1) 293FT cells were purchased from Thermo Fisher Scientific, Inc.. The cells were grown in Dulbecco's modified Eagle medium (supplemented with 4.5 g/L glucose and 2 mM L‐glutamine) at 37°C, 5% CO2, and 95% humidity. The cells were passaged 3 times per week by harvesting cells using trypsin and plating at a density of 1.0 × 10^4 cells/cm^2 in a 10 cm cell culture plate for maintenance culture. The 293FT cells were detached using trypsin and re‐seeded at a density of 2.5 × 10^4 cells/cm^2 in BioCoat™ Collagen I 6‐well plates (Corning Inc.) for transfection and then treated with 1.2 μg of plasmid vector and 3.2 μl of Lipofectamine™ 2000 Transfection Reagent (Thermo Fisher Scientific, Inc.) according to the manufacturer's instructions. After a 3‐h treatment, the transfection medium was replaced with a fresh cell culture medium and incubated at 37°C with 95% humidity and 5% CO2 until ready for the assay.
(§2) Transport experiments were conducted approximately 24 h post‐transfection. The experiments were initiated by aspirating culture medium and addition of pre‐warmed radiolabeled substrate solution (final 1.0% of acetonitrile or 0.9% of ethanol in phosphate‐buffered saline (PBS[−])) to each well. After a 10‐min incubation, cells were washed twice with 1 ml of ice‐cold PBS(−) and lysed with 700 μl of 1.0 M NaOH for 3 h or more at room temperature. The lysate was transferred to a 1.5‐ml tube, and neutralized with 350 μl of 2.0 M HCl and 350 μl of 2.0% sodium dodecyl sulfate (SDS) solution. From the lysate, 1.0 ml was transferred to a vial containing 10 ml of Emulsifier Scintillator Plus to measure the radioactivity in the LSC. The protein concentration of the cell lysate was also measured using a Pierce™ BCA Protein Assay Kit (Thermo Fisher Scientific, Inc.), which was used to normalize, according to the cell number, the radioactivity in the cell lysate extract. The protein assay was performed in duplicate. Each sample type was assayed in triplicate wells, and each run was performed twice. When the difference in mean uptake between OATP expressing cells and mock cells was more than 2 times, the OATP was judged to be involved in transportation of the substrate. […] Each sample type was assayed in triplicate wells.

mouse Oatp1b2 = target: T2, mouse Oatp1b2 (Mus musculus, UniProt Q9JJL3); test: Uptake assay for radiolabeled substrates, mouse Oatp1b2 expressing 293FT cells; settings: 10‐min incubation
T2 sequence (Q9JJL3 1-689): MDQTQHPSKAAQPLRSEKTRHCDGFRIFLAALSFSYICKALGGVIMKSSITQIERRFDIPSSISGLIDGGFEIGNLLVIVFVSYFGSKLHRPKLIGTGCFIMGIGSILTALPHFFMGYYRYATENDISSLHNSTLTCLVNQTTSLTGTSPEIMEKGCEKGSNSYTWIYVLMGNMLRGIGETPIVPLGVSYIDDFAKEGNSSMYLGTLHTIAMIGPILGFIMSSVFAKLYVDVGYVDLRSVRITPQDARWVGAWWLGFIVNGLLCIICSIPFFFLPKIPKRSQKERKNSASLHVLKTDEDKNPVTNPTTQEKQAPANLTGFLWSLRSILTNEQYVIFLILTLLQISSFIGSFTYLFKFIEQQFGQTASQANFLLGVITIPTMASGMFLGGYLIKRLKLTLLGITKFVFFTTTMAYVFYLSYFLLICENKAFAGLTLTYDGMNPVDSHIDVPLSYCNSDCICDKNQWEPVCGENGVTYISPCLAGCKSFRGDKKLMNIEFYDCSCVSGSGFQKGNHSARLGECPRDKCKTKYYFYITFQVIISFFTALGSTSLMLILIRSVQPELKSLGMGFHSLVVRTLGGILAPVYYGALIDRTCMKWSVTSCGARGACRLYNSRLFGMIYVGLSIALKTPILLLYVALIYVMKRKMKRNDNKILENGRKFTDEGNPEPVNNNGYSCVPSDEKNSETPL
Method: as §1, §2

human OATP2B1 = target: T3, human OATP2B1 (Homo sapiens, UniProt O94956); test: Uptake assay for radiolabeled substrates, human OATP2B1 expressing 293FT cells; type: in vitro ADME; settings: 10‐min incubation
T3 construct: expressed in transfected cells; host or cells: 293FT cells
T3 sequence (O94956 1-709): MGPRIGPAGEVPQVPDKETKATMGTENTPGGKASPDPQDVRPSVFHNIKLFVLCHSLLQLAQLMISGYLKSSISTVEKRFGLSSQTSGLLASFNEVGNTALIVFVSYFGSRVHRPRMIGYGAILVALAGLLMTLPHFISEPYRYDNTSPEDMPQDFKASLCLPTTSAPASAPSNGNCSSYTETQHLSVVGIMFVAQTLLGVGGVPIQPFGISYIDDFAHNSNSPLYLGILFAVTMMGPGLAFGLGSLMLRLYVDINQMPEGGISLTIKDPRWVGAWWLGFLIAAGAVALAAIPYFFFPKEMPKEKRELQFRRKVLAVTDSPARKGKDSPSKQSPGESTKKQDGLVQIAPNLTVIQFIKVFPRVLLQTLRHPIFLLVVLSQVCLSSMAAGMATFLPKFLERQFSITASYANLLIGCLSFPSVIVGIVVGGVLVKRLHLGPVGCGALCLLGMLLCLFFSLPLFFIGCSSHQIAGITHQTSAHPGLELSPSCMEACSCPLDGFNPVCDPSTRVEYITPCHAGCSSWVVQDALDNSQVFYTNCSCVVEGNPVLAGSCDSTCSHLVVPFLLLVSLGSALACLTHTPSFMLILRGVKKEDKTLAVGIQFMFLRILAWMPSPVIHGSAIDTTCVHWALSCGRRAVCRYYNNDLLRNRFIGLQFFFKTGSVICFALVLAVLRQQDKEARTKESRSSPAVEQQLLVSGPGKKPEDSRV
Method: as §1, §2

Compound | Ratio of uptake amount relative to the uptake into mock cells (rat Oatp1a1; Run_1) | Ratio of uptake amount relative to the uptake into mock cells (rat Oatp1a1; Run_2) | Ratio of uptake amount relative to the uptake into mock cells (mouse Oatp1b2; Run_1) | Ratio of uptake amount relative to the uptake into mock cells (mouse Oatp1b2; Run_2) | Ratio of uptake amount relative to the uptake into mock cells (human OATP2B1; Run_1) | Ratio of uptake amount relative to the uptake into mock cells (human OATP2B1; Run_2) | Uptake, times higher than in mock cells (rat Oatp1a1) [times]
C[C@]12CC[C@@H]3c4ccc(OS(=O)(=O)O)cc4CC[C@H]3[C@@H]1CCC2=O [E3S, Estrone 3‐sulfate] | 28.6 | 13.6 | 23.8 | 19.7 | 16.2 | 1.9 | –
C[C@]12CC[C@@H]3c4ccc(O)cc4CC[C@H]3[C@@H]1CC[C@@H]2O[C@@H]1O[C@H](C(=O)O)[C@@H](O)[C@H](O)[C@H]1O [E217βG, Estradiol 17β‐D‐glucuronide] | 59.1 | 65.4 | 8.3 | 14.7 | 1.9 | 0.6 | > 50
Cn1c(C(F)(F)F)cc(=O)n(-c2cc(Oc3cccnc3OCC(=O)O)c(Cl)cc2F)c1=O [S‐3100‐CA] | 11.7 | 8.7 | 11.7 | 6.2 | 2.6 | 1.9 | –
